PubChem BioAssay AID248 (DTP/NCI, 2004)
Several values for one entry are separate records, joined by “and”; a condition that tells them apart may be missing. Equal values may be shown once. Inconclusive results and toxic doses are left out. Rule as the data show it: active = T/C of 150% or more; inactive = T/C below 125%. Square brackets hold non-standard residues; d marks the D form. Peptide text beside a SMILES is read from it. ξ: configuration not given here. ξF = NC(Cc1ccccc1)C(=O)O

System: L1210 leukemia ip in BDF1 mice, survival T/C
Assay: NCI In Vivo Anticancer Drug Screen. Data for tumor model L1210 Leukemia (intraperitoneal) in B6D2F1 (BDF1) mice
Conditions: endpoint: mean survival time, higher = longer survival
Procedure, shortened: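 Transplanted-tumor mice were given test agent; controls received vehicle only. Survival readings from the two groups were divided (treated over control).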

[1] = dose: 100.0 mg/kg/injection, schedule: Q04DX003 (ip), vehicle: Klucel (hydroxypropylcellulose) (HPC)
[2] = dose: 200.0 mg/kg/injection, schedule: Q04DX003 (ip), vehicle: Klucel (hydroxypropylcellulose) (HPC)
[3] = dose: 400.0 mg/kg/injection, schedule: Q04DX003 (ip), vehicle: Klucel (hydroxypropylcellulose) (HPC)
[4] = dose: 100.0 mg/kg/injection, schedule: Q01DX009 (ip), vehicle: saline
[5] = dose: 100.0 mg/kg/injection, schedule: Q04DX003 (ip), vehicle: saline
[6] = dose: 200.0 mg/kg/injection, schedule: Q01DX009 (ip), vehicle: saline
[7] = dose: 200.0 mg/kg/injection, schedule: Q04DX003 (ip), vehicle: saline
[8] = dose: 400.0 mg/kg/injection, schedule: Q01DX009 (ip), vehicle: saline
[9] = dose: 400.0 mg/kg/injection, schedule: Q04DX003 (ip), vehicle: saline
[10] = dose: 100.0 mg/kg/injection, schedule: Q04DX002 (ip), vehicle: Klucel (hydroxypropylcellulose) (HPC)
[11] = dose: 200.0 mg/kg/injection, schedule: Q04DX002 (ip), vehicle: Klucel (hydroxypropylcellulose) (HPC)
[12] = dose: 400.0 mg/kg/injection, schedule: Q04DX002 (ip), vehicle: Klucel (hydroxypropylcellulose) (HPC)

Measured: T/C

CC1(c2ccco2)CCC(=O)CC1=O (stereo not given)
inactive: [1] 101 % of control | [2] 98 % of control | [3] 98 % of control

O=C(CCN1CC1)NCCc1ccccc1
inactive: dose: 20.0 mg/kg/injection, schedule: Q04DX003 (ip), vehicle: Klucel (hydroxypropylcellulose) (HPC) 92 % of control | dose: 40.0 mg/kg/injection, schedule: Q04DX003 (ip), vehicle: Klucel (hydroxypropylcellulose) (HPC) 95 % of control | [1] 86 % of control

N#CCC(N)=C(C#N)C#N
inactive: dose: 100.0 mg/kg/injection, schedule: Q01DX001 (ip), vehicle: carboxymethylcellulose (CMC) 94 % of control | dose: 100.0 mg/kg/injection, schedule: Q01DX Z (ip), vehicle: carboxymethylcellulose (CMC) 94 % of control | dose: 200.0 mg/kg/injection, schedule: Q01DX001 (ip), vehicle: carboxymethylcellulose (CMC) 103 % of control

Cc1c([N+](=O)[O-])cc(C(C)(C)C)c(OS(C)(=O)=O)c1[N+](=O)[O-]
inactive: dose: 25.0 mg/kg/injection, schedule: Q04DX002 (ip), vehicle: saline with Tween-80 92 % of control | dose: 50.0 mg/kg/injection, schedule: Q04DX002 (ip), vehicle: saline with Tween-80 99 % of control | dose: 100.0 mg/kg/injection, schedule: Q04DX002 (ip), vehicle: saline with Tween-80 96 % of control

NC(Cc1ccccc1)C(=O)NCC(=O)O (stereo not given) (H-[ξF]-Gly-OH)
inactive: [4] 105 % of control | [5] 98 % of control | [6] 105 % of control | [7] 97 % of control | [8] 102 % of control | [9] 97 % of control

Cc1ccc(C(Br)S(=O)(=O)c2ccccc2)cc1 (stereo not given)
inactive: [10] 97 % of control | [11] 86 % of control | [12] 111 % of control

S=C(NCc1ccc(Cl)c(Cl)c1)Nc1ccccc1
inactive: dose: 25.0 mg/kg/injection, schedule: Q01DX009 (ip), vehicle: Klucel (hydroxypropylcellulose) (HPC) 102 % of control | dose: 50.0 mg/kg/injection, schedule: Q01DX009 (ip), vehicle: Klucel (hydroxypropylcellulose) (HPC) 90 % of control | dose: 100.0 mg/kg/injection, schedule: Q01DX009 (ip), vehicle: Klucel (hydroxypropylcellulose) (HPC) 87 % of control and 90 % of control

C/C(=C\Br)CBr
inactive: dose: 100.0 mg/kg/injection, schedule: Q01DX009 (ip), vehicle: acetone 97 % of control

CSCS(C)=O (stereo not given)
inactive: [5] 104 % of control | [7] 103 % of control | [9] 103 % of control

CCOC(=O)/C=C/C(F)(F)C(F)(F)C(F)(F)C(F)(F)C(F)(F)C(F)(F)C(F)(F)F
inactive: [4] 98 % of control | [6] 105 % of control | [8] 105 % of control

C=COC(=O)N1c2ccc(C)cc2C=CC1C#N (stereo not given)
inactive: dose: 100.0 mg/kg/injection, schedule: Q04DX003 (ip), vehicle: gum acacia 92 % of control | dose: 200.0 mg/kg/injection, schedule: Q04DX003 (ip), vehicle: gum acacia 102 % of control | dose: 400.0 mg/kg/injection, schedule: Q04DX003 (ip), vehicle: gum acacia 86 % of control

[Cu+2].[NH-]C(CC(=O)O)C(=O)O.[NH-]C(CC(=O)O)C(=O)O (stereo not given)
inactive: dose: 5.0 mg/kg/injection, schedule: Q01DX001 (ip), vehicle: saline 96 % of control | dose: 10.0 mg/kg/injection, schedule: Q01DX001 (ip), vehicle: saline 96 % of control | dose: 20.0 mg/kg/injection, schedule: Q01DX001 (ip), vehicle: saline 91 % of control | dose: 40.0 mg/kg/injection, schedule: Q01DX001 (ip), vehicle: saline 96 % of control

CC(=O)C1=C(C)NC(C)=C(C(C)=O)C1C
inactive: dose: 55.0 mg/kg/injection, schedule: Q01DX Z (ip), vehicle: saline 97 % of control | dose: 83.0 mg/kg/injection, schedule: Q01DX Z (ip), vehicle: saline 95 % of control | dose: 125.0 mg/kg/injection, schedule: Q01DX Z (ip), vehicle: saline 100 % of control

COC(C#N)(Cc1ccccc1)Cc1ccccc1
inactive: dose: 75.0 mg/kg/injection, schedule: Q01DX001 (ip), vehicle: other 92 % of control | dose: 150.0 mg/kg/injection, schedule: Q01DX001 (ip), vehicle: other 95 % of control

C=C1CC2(CCCC3(CC(=C)C(=O)O3)C2(C)C)OC1=O (stereo not given)
inactive: dose: 100.0 mg/kg/injection, schedule: Q01DX001 (ip), vehicle: saline 102 % of control | dose: 200.0 mg/kg/injection, schedule: Q01DX001 (ip), vehicle: saline 119 % of control

NC(=O)C1(O)C(Cl)(Cl)CCCC1(Cl)Cl
inactive: dose: 50.0 mg/kg/injection, schedule: Q01DX009 (ip), vehicle: saline with Tween-80 102 % of control | dose: 100.0 mg/kg/injection, schedule: Q01DX009 (ip), vehicle: saline with Tween-80 91 % of control | dose: 200.0 mg/kg/injection, schedule: Q01DX009 (ip), vehicle: saline with Tween-80 106 % of control

O=C(O)CCNCc1ccccc1
inactive: dose: 50.0 mg/kg/injection, schedule: Q01DX009 (ip), vehicle: saline 100 % of control | [4] 108 % of control | dose: 100.0 mg/kg/injection, schedule: Q04DX002 (ip), vehicle: saline 111 % of control | [6] 100 % of control | dose: 200.0 mg/kg/injection, schedule: Q04DX002 (ip), vehicle: saline 97 % of control | dose: 400.0 mg/kg/injection, schedule: Q04DX002 (ip), vehicle: saline 97 % of control

CCOC(=O)c1ccc(NC(=O)N(C)N=O)cc1
inactive: dose: 75.0 mg/kg/injection, schedule: Q01DX001 (ip), vehicle: carboxymethylcellulose (CMC) 121 % of control

CCOC(=O)NC(C)c1cccc2ccccc12 (stereo not given)
inactive: [1] 93 % of control | [2] 97 % of control | [3] 90 % of control

Cc1ccc[n+](CC(=O)CCc2ccc(C(=O)C[n+]3cccc(C)c3)cc2)c1
inactive: dose: 0.07 mg/kg/injection, schedule: Q04DX003 (ip), vehicle: saline 94 % of control | dose: 0.14 mg/kg/injection, schedule: Q04DX003 (ip), vehicle: saline 101 % of control

CN(C)c1ccccc1C(=O)N/N=C\c1ccc(-c2ccccc2)cc1
inactive: [10] 87 % of control | [11] 100 % of control | [12] 117 % of control

CC1SCSCS1
inactive: [1] 111 % of control | [2] 88 % of control | [3] 98 % of control

O=C1CC2OCC=C3C[N+]4(SS(=O)(=O)[O-])CCC56c7ccccc7N1C5C2C3CC64 (stereo not given)
inactive: dose: 0.15 mg/kg/injection, schedule: Q01DX009 (ip), vehicle: saline 93 % of control | dose: 0.31 mg/kg/injection, schedule: Q01DX009 (ip), vehicle: saline 95 % of control | dose: 0.31 mg/kg/injection, schedule: Q04DX003 (ip), vehicle: acetone 108 % of control | dose: 0.62 mg/kg/injection, schedule: Q01DX009 (ip), vehicle: saline 93 % of control | dose: 0.62 mg/kg/injection, schedule: Q04DX003 (ip), vehicle: acetone 108 % of control | dose: 0.92 mg/kg/injection, schedule: Q01DX009 (ip), vehicle: saline 92 % of control | dose: 1.25 mg/kg/injection, schedule: Q01DX001 (ip), vehicle: saline 98 % of control | dose: 1.25 mg/kg/injection, schedule: Q04DX003 (ip), vehicle: acetone 88 % of control | dose: 1.4 mg/kg/injection, schedule: Q01DX009 (ip), vehicle: saline 92 % of control
